Literature values, collected in patent US8324185B2, “Composition for the treatment of obesity and hyperlipidemia” (Nucitec, S.A. DF C.V., priority 2004, dated 2012).

Columns and labels:
[1] = dietary fat
pancreatic lipase = target: T1, pancreatic lipase (Homo sapiens, UniProt P16233); conditions: in vitro
T1 sequence (P16233 17-465): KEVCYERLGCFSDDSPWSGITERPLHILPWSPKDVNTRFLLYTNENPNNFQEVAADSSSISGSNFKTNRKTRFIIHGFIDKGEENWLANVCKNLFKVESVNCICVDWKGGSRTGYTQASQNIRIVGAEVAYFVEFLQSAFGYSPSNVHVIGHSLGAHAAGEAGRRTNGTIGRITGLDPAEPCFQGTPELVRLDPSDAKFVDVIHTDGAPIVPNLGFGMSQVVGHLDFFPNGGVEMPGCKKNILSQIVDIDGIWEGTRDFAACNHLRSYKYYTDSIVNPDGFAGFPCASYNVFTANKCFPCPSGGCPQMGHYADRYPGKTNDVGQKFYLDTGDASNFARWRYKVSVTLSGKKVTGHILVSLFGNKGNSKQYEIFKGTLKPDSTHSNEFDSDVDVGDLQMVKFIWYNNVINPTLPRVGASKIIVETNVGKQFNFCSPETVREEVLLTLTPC

Row | SMILES | pK value of the amino group | reduction in fat absorption from the diet [1] [%] | inhibition of pancreatic lipase activity (pancreatic lipase)
1 | NCCCC[C@H](N)C(=O)O [lisine] | ~9 |  | 
2 | CCCCCCCCCCC[C@@H](C[C@@H]1OC(=O)[C@H]1CCCCCC)OC(=O)[C@H](CC(C)C)NC=O [orlistat] |  | 30 | fully inhibits
